# Laboratory results as given in patent publication US20250136597A1, “COMPOUNDS AND COMPOSITIONS FOR TREATING CONDITIONS ASSOCIATED WITH STING ACTIVITY” (IFM Due, Inc., priority 2020, published 2025).
# Molecular target: T1, hSTING (Homo sapiens, UniProt Q86WV6, G230A/H232R/R293Q/R71H)
# T1 construct: host or cells: THP1-Dual KO-IFNAR2 cells
# Experiment: STING reporter assay in THP1-Dual KO-IFNAR2 cells (2′3′cGAMP stimulation, luciferase reporter)
# Type: cell-based
# Settings: final 2′3′cGAMP 15 μM, 24 h, luciferase reporter activity
# Protocol: STING pathway activation by the compounds described herein was measured using THP1-Dual™ cells (KO-IFNAR2).
# THP1-Dual™ KO-IFNAR2 Cells (obtained from invivogen) were maintained in RPMI, 10% FCS, 5 ml P/S, 2 mM L-glut, 10 mM Hepes, and 1 mM sodium pyruvate. Compounds were spotted in empty 384 well tissue culture plates (Greiner 781182) by Echo for a final concentration of 0.0017-100 μM. Cells were plated into the TC plates at 40 μL per well, 2×10E6 cells/mL. For activation with STING ligand, 2′3′cGAMP (MW 718.38, obtained from Invivogen), was prepared in Optimem media.
# The following solutions were prepared for each 1×384 plate: • Solution A: 2 mL Optimem with one of the following stimuli: • 60 μL of 10 mM 2′3′cGAMP→150 μM stock • Solution B: 2 mL Optimem with 60 μL Lipofectamine 2000→Incubate 5 min at RT
# 2 mL of solution A and 2 ml Solution B was mixed and incubated for 20 min at room temperature (RT). 20 μL of transfection solution (A+B) was added on top of the plated cells, with a final 2′3′cGAMP concentration of 15 μM. The plates were then centrifuged immediately at 340 g for 1 minute, after which they were incubated at 37° C., 5% CO2, >98% humidity for 24 h. Luciferase reporter activity was then measured. EC50 values were calculated by using standard methods known in the art.
# Luciferase reporter assay: 10 μL of supernatant from the assay was transferred to white 384-plate with flat bottom and squared wells. One pouch of QUANTI-Luc™ Plus was dissolved in 25 mL of water. 100 μL of QLC Stabilizer per 25 mL of QUANTI-Luc™ Plus solution was added. 50 μL of QUANTI-Luc™ Plus/QLC solution per well was then added. Luminescence was measured on a Platereader (e.g., Spectramax I3X (Molecular Devices GF3637001)).
# Luciferase reporter activity was then measured. EC50 values were calculated by using standard methods known in the art.
# T1 sequence (Q86WV6 whole entry R71H/G230A/H232R/R293Q): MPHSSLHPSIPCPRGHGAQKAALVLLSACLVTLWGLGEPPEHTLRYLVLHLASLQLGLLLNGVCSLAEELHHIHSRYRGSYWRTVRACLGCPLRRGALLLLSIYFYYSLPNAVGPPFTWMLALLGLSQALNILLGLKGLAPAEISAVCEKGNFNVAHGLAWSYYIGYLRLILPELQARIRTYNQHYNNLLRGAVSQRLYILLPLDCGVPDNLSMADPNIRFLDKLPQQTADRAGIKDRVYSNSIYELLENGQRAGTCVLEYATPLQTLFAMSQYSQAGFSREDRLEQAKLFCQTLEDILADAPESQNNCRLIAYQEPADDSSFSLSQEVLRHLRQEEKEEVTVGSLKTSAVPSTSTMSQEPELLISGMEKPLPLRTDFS
row,SMILES,EC50 [µM]
1,"CCc1ccc(-n2cc(-c3ccc4[nH]cc(NS(=O)(=O)CC5CCCO5)c4c3)cn2)cc1 (stereo not shown) [Compound 101, N-(5-(1-(4-ethylphenyl)-1H-pyrazol-4-yl)-1H-indol-3-yl)-1-(tetrahydrofuran-2-yl)methanesulfonamide]",0.2 to 1
2,"CCc1ccc(-n2cc(-c3ccc4[nH]cc(NS(=O)(=O)CC5CC5)c4c3)cn2)cc1 [Compound 102, 1-cyclopropyl-N-(5-(1-(4-ethylphenyl)-1H-pyrazol-4-yl)-1H-indol-3-yl)methanesulfonamide]",0.2 to 1
3,"CCc1ccc(-n2cc(-c3ccc4[nH]cc(NS(=O)(=O)C5CCC5)c4c3)cn2)cc1 [Compound 103, N-(5-(1-(4-ethylphenyl)-1H-pyrazol-4-yl)-1H-indol-3 yl)cyclobutanesulfonamide]",0.2 to 1
4,"CCc1ccc(-n2cc(-c3ccc4[nH]cc(NS(=O)(=O)CC)c4c3)cn2)cc1 [Compound 104, N-(5-(1-(4-ethylphenyl)-1H-pyrazol-4-yl)-1H-indol-3-yl)ethanesulfonamide]",1 to 5
